In patent US20110262996A1, “METHODS AND MATERIALS FOR DEGRADING PYRETHROID” (DANISCO A/S, priority 2008, published 2011):

Molecular target: T1, organophosphate hydrolase (OPH) (Brevundimonas diminuta, UniProt P0A434)
T1 construct: purchased Genencor DEFENZ 130G, lot 102-6181-001
Test: Time course of permethrin degradation by OPH, permethrin quantified by GCMS
Type: biochemical
Conditions: for Amount of Permethrin measured: 5 μL of 0.31 mg/mL OPH added to 995 μL of 2.5 mg/mL permethrin, pH 8.5, 22° C., ppm at the detector
Experimental: OPH was assayed for the ability to degrade permethrin. Its efficacy has been measured by performing time course experiments wherein a sample of OPH is added to a sample of permethrin. Degraded permethrin is then separated from the reaction mixture and detected on a GCMS.
Experimental Methods and Equipment. A Shimadzu GC2010 Gas Chromatograph with AOC 20i Auto Injector and a Shimadzu GCMS QP2010S Quadrapole Mass Spectrometer were used to analyze the experimental samples. A Supelco Equity-5 column was used (length: 30.0 m, thickness: 0.25 μm, diameter: 0.25 mm) for the assays. However, analogous columns may be substituted.
The equipment was run with the following parameters: • column oven temperature: 120° C. • injector temperature: 250° C. • injection: splitless • pre-run rinses: 3 • post-run rinses: 3 • sample rinses: 2 • linear velocity: 30 cm/sec • column flow: 0.64 mL/min • split ratio: 10 • detector voltage: relative to tuning • ion source temperature: 250° C. • interface temperature: 270° C. • solvent cut time: 3 min • run time: 35 min • temperature ramp: 5° C./min • scan speed: 833
Experimental assays were run using recombinant OPH (DEFENZ™ 130G, lot 102-6181-001; Genencor). Reagents included ammonium carbonate (Sigma 207861, lot 12919JC), cobalt chloride (JT Baker 1670-04, lot Y41640), hydrochloric acid (JT Baker 5620-02, lot A23506), propanol (Sigma 154970, lot 04242AD), and permethrin (Sigma-Pestanal 45614, lot 7079×).
Preparation of Enzyme Samples. OPH enzyme granules (2% protein) were dissolved in 33 mM ammonium carbonate buffer, pH 8.5, at 22° C. The reaction mixture was agitated for 30 minutes, first vortexed, then slowly agitated on a temperature-controlled platform shaker. A 1.5 mL sample of the enzyme solution was taken and centrifuged for 1 minute at 13,000 rpm. An aliquot of the resulting supernatant is used in the pesticide degradation reaction.
Preparation of Permethrin Samples. A stock permethrin sample at a concentration of 100 mg/mL was made by dissolving an appropriate amount of permethrin standard into propanol. The stock sample was stored under refrigeration. For generating standard curves on the GCMS, permethrin standards were made by diluting an aliquot of the stock permethrin sample into propanol to achieve a concentration of 1 mg/mL and 10 mg/mL. Permethrin to be used in the enzyme reaction was prepared by diluting an aliquot of the stock solution into 33 mM ammonium carbonate buffer at the desired pH for a particular reaction, and at room temperature.
Enzyme Reactions. In a 1.5 mL tube, 250 μL of a 10 mg/mL permethrin solution in propanol was added to 0.75 mL of 33 mM ammonium carbonate buffer, pH 8.5. A 995 μL aliquot of the permethrin solution was placed in a 1.5 mL gas chromatography (GC) sample vial, to which was added a 5 μL aliquot of a 0.31 mg/mL OPH enzyme solution. To inactivate the reaction at any specific time point, a 10 μL aliquot of the reaction solution was removed and added to 990 μL of propanol in a GC sample vial. These samples were then loaded on the GCMS autosampler.
Results and Discussion. This study was conducted to determine whether OPH degrades permethrin. To quantitatively measure amounts of permethrin, the Shimadzu GC with Quadrapole MS detector was used, as in previous pesticide experiments. A standard curve was generated using 1 mg/mL and 10 mg/mL stock solutions in propanol. Regression of the standard curve yielded R2 values of 0.9997 above 50 ppm and of 0.998 below 50 ppm.
Preliminary experiments were conducted to ascertain optimum concentrations for the enzyme reactions. […] Samples were taken at time points of 0, 1, 5, 15, and 30 minutes by removing 10 μL of the reaction mixture and adding it to 990 μL of propanol. […]

CC1(C)C(C=C(Cl)Cl)C1C(=O)OCc1cccc(Oc2ccccc2)c1 (stereo not shown) [permethrin]
degraded amount of permethrin at the detector (after 30 minutes): 12 ppm | Amount of Permethrin measured (time 0 min): 31.47 ppm | Amount of Permethrin measured (time 1 min): 25.8 ppm | Amount of Permethrin measured (time 5 min): 25.88 ppm | Amount of Permethrin measured (time 15 min): 24.64 ppm | Amount of Permethrin measured (time 30 min): 19.27 ppm | initial, rapid degradation of permethrin at the detector (within 1 minute of the start of the reaction): approximately 6 ppm
